The source made the active and inactive calls.
How the values were obtained:
[1] = target: T1, DNA repair protein RAD52 homolog (Homo sapiens, UniProt P43351); type: functional, biochemical
T1 sequence (P43351 whole entry): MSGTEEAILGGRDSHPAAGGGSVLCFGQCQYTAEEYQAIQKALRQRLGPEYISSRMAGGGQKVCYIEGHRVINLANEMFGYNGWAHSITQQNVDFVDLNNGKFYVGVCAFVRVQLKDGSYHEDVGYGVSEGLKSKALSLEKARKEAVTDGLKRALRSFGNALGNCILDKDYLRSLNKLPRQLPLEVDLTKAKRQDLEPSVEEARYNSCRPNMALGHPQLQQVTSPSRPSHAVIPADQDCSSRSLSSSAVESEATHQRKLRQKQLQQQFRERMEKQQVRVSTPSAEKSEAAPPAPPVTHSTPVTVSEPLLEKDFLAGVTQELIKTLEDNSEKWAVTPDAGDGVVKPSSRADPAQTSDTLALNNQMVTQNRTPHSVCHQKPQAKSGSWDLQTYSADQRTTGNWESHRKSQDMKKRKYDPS

[2] = target: T2, High affinity choline transporter 1 (Homo sapiens, UniProt Q9GZV3); test: human choline transporter blockers, potency – cell-based, 5-point CRC, membrane potential dye, dose response (AID 504840); type: functional
T2 sequence (Q9GZV3 whole entry): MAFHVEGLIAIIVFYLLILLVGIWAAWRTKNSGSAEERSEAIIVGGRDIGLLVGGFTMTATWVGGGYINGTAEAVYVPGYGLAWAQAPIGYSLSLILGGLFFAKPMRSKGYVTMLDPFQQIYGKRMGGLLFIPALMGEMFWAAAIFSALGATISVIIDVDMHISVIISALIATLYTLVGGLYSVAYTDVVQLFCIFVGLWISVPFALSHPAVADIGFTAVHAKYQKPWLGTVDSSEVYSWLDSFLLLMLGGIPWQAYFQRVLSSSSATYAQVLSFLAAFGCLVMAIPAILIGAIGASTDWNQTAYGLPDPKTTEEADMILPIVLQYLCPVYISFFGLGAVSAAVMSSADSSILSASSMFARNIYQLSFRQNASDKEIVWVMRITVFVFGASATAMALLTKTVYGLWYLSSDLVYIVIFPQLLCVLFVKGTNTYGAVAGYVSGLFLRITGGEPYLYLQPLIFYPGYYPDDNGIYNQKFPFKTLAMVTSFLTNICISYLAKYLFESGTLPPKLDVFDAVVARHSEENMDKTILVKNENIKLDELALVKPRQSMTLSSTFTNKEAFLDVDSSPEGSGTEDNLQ

[3] = target: T3, Trace amine-associated receptor 1 (Homo sapiens, UniProt Q96RJ0); test: Counterscreen for agonists of the human trace amine associated receptor 1 (hTAAR1): Fluorescence-based cell-based high throughput dose response assay to identify hTAAR1 agonist that also desensitize TAAR1 receptor response.; type: functional
T3 sequence (Q96RJ0 whole entry): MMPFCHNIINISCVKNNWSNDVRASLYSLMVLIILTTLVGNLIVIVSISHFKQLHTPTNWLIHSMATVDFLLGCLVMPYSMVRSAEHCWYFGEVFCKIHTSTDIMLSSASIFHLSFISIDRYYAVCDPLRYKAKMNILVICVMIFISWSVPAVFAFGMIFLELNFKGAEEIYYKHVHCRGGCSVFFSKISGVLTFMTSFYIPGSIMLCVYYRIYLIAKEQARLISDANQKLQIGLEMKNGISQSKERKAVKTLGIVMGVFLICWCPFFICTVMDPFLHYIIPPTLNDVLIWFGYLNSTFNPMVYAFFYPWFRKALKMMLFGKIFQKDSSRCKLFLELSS

[4] = target: T3, Trace amine-associated receptor 1; test: Fluorescence-based cell-based high throughput dose response assay to identify agonists of the human trace amine associated receptor 1 (TAAR1).; type: functional
cells [5] = type: functional, cell-based
cells [6] = type: functional, cell-based; remark: listed apart in the source
[7] = reduced cellular PGC1a acetyl-lysine signal – cell-based, cherry-picked samples, dose response (AID 720514); type: functional;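 also: potency may reflect raised or lowered acetylation signal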
Caspase-6 = target: T4, Caspase-6 (Homo sapiens, UniProt P55212); test: inhibition of CASP6 peptide cleavage – biochemical, VEID-R110 fluorescence, cherry-pick, dose response (AID 720632)
T4 sequence (P55212 whole entry): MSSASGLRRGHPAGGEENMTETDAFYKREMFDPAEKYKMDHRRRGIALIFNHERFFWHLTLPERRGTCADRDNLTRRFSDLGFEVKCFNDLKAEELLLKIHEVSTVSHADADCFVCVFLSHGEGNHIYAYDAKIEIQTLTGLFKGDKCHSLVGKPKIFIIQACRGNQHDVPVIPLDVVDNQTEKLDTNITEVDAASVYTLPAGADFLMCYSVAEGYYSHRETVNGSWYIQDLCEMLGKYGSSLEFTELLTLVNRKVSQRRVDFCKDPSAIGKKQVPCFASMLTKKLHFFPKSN

[8] = target: T5, Probable nicotinate-nucleotide adenylyltransferase (Staphylococcus aureus (strain N315), UniProt P65502); type: functional, Staphylococcus aureus subsp. aureus N315; conditions: read-out: IC50_Mean;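 as to IC50 Mean: confirmatory dose-response retesting of NadD inhibitor hits first found in an ultra-high-throughput screen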
[9] = target: T5, Probable nicotinate-nucleotide adenylyltransferase; type: functional, Staphylococcus aureus subsp. aureus N315
[10] = target: T6, Oxysterols receptor LXR-beta (Homo sapiens, UniProt P55055); test: LXR agonists, Gal4 luciferase reporter, dose response, counter-screen for ssDAF-12 agonist project, cell-based, luminescence, HEK293, S. stercoralis campaign (AID 720737); type: functional; conditions: read-out: IC50 (the source's name)
T6 sequence (P55055 whole entry): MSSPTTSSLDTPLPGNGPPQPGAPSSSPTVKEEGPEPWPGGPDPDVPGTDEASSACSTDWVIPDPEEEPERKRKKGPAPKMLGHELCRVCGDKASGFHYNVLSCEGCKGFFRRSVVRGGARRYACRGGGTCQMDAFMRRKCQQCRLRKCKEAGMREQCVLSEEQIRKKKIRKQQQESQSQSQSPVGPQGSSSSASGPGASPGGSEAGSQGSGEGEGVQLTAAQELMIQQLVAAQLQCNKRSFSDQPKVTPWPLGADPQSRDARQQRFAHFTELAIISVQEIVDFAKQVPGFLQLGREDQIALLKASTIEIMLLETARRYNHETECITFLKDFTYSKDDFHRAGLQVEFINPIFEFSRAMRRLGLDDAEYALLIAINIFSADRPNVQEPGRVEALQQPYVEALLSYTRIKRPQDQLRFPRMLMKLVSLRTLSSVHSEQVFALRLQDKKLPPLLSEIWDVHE

[11] = Luminescence-based cell-based high throughput dose response assay to identify activators of the DAF-12 from the parasite S. stercoralis (ssDAF-12).; type: functional
[12] = Trypanosoma cruzi growth suppression in host cells – NIH3T3 host cells, beta-gal luminescence, confirmation (AID 2044); type: functional, cell-based;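 also: intracellular parasites grown in NIH/3T3 mouse fibroblasts as host cells; luminescent beta-galactosidase reporter signal from transgenic T. cruzi replicating inside host cells; inhibitors lower the luminescence signal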
Streptokinase A = target: T7, Streptokinase A (Streptococcus pyogenes serotype M1, UniProt P10520); test: viability-normalized secreted streptokinase activity reduction – plasminogen activation absorbance, OD405, dose response (AID 1914); type: functional, Streptococcus pyogenes M1 GAS;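 also: secreted streptokinase activity via plasminogen activation per viability signal from cell pellet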
T7 sequence (P10520 whole entry): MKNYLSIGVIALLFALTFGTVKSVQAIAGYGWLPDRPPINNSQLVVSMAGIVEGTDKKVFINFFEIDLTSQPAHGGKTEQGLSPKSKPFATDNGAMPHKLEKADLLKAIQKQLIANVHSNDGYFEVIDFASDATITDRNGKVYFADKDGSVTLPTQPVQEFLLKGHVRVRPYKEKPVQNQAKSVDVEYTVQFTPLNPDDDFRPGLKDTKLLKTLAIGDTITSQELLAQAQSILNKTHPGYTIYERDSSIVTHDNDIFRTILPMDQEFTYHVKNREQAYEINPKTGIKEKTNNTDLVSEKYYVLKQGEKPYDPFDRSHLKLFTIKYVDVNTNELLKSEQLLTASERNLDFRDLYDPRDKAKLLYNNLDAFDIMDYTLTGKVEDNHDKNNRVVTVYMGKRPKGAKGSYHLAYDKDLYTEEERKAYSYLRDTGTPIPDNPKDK

[13] = microbe, parasite or virus in culture; type: functional; conditions: Mycobacterium tuberculosis
[14] = NIH3T3 cell viability loss – ATP luminescence, mouse fibroblasts, counter-screen, dose response (AID 2010); type: functional, cell-based;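 also: cells exposed to compound for about 90 hours before reading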
[15] = fluconazole-exposed Candida albicans growth modulators – fluorescence, retest, confirmation (AID 2467); type: functional, cell-based
Streptococcus = test: GAS UMAA2166 growth inhibition – luminescence, BacTiterGlo, counter-screen for streptokinase expression inhibitor project, dose response (AID 1915); type: functional, organism-based;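 also: potency for reduction of bacterial viability or growth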
[16] = test system: Streptococcus sp. 'group A'; test: Streptococcus pyogenes SK(-)GAS viability under kanamycin – luminescence, BacTiterGlo, confirmation, counter-screen for streptokinase expression inhibitor project, dose response (AID 1900); type: functional, organism-based
[17] = NIH-3T3 fibroblast cytotoxicity, dose response, cytotoxicity control, cell-based, fluorescence, Alamar Blue, secondary assay (AID 2327); type: functional;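 also: NIH-3T3 mouse fibroblasts cultured with fluconazole at 8 µg/mL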
[18] = OVCAR8 cell viability loss – plate reader, dry powder samples, PAX8 project, dose response (AID 743197); type: functional, cell-based; conditions: OVCAR-8
[19] = general cell-killing toxicity readout – plate reader, dry powder samples, cytotoxicity control for PAX8 inhibitor project, dose response (AID 743021); type: functional, cell-based
Paired box protein Pax-8 = Paired box protein Pax-8 (Homo sapiens, UniProt Q06710); test: PAX8 transcriptional activity inhibition in RMG-I – RMG-I cells, luciferase, cherry-pick, dose response (AID 687027); type: functional, cell-based;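 also: luciferase reporter driven by Pax8 target thyroperoxidase promoter measured by SteadyGlo luminescence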
[20] = OVCAR-3 cell viability loss – plate reader, dry powder samples, PAX8 inhibitor project, dose response (AID 743044); type: functional, cell-based
[21] = IGROV1 cell killing – plate reader, dry powder samples, PAX8 inhibitor project, dose response (AID 743043); type: functional, cell-based; conditions: IGROV-1
[22] = target: Luciferin 4-monooxygenase (Photinus pyralis, UniProt P08659); test: inhibition of purified Photinus pyralis luciferase – biochemical, luminescence, dose response (AID 1891)
[23] = Luminescence Cell-Based Dose Confirmation HTS to Identify Inhibitors of Platelet Dense Granule Release. [Related pubchem assays: 1663 (Primary HTS), 1678 (Summary of Project)]; type: functional

T5 sequence (P65502 whole entry): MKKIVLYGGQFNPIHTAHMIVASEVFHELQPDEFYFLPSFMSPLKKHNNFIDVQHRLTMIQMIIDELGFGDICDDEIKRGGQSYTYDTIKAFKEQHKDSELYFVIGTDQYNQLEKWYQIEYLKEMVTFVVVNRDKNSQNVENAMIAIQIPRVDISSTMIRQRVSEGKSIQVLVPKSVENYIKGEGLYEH
Sequence of Paired box protein Pax-8 (Q06710 whole entry): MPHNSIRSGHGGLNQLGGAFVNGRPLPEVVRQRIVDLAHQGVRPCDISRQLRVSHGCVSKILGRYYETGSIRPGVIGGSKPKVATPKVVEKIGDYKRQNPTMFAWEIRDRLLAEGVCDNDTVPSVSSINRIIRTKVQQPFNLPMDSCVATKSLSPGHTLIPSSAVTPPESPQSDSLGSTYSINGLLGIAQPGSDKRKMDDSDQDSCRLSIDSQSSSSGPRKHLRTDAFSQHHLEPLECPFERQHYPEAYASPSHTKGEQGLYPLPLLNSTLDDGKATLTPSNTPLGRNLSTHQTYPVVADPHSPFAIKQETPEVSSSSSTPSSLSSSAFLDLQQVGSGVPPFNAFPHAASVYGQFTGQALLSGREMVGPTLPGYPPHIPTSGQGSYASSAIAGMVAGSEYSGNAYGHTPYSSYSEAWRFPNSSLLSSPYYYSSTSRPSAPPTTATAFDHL
Sequence of Luciferin 4-monooxygenase (P08659 whole entry): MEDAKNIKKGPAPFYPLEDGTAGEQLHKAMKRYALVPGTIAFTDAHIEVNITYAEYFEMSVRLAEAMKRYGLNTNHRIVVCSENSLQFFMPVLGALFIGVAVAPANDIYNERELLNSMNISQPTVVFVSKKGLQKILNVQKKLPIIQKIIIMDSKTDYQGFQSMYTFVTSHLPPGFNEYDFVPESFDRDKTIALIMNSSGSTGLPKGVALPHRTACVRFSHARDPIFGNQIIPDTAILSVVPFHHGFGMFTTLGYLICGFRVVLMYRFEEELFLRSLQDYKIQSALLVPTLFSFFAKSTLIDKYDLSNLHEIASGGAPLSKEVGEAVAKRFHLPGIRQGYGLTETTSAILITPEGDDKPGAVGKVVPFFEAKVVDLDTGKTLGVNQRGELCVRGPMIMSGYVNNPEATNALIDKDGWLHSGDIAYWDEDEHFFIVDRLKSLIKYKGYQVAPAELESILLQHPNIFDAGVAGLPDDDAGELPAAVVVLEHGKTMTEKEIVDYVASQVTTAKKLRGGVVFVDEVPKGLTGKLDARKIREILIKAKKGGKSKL

Structure (SMILES): Cc1cccc2sc(N(CCCN(C)C)C(=O)c3ccc(Cl)s3)nc12
- AC50 [1]: 24.9 µM (active)

Structure (SMILES): CCN1CCN(c2cc(C)c3cc(NC(=S)N4CCOCC4)ccc3n2)CC1
- IC50 [2]: 12.6 µM (active)
- AC50 [1]: 22 µM (active)

Structure (SMILES): O=C(CC1Nc2ccccc2NC1=O)NCCc1ccccc1 (centres undefined)
- IC50 [3]: 7.18 µM (active)
- EC50 [4]: 2.27 µM (active)
- EC50 (cells [5]): > 29.9 µM (inactive)
- IC50 (cells [6]): > 29.9 µM (inactive)

Structure (SMILES): CCCCOc1ccc(/C=C/C(=O)OCC(=O)c2c(N)n(C)c(=O)n(C)c2=O)cc1OCC
- AC50 [7]: 12.6 µM (active)

Structure (SMILES): O=C(O)/C=C/C(=O)NCCc1cccc(Cl)c1
- IC50 [3]: 3.77 µM (active)
- EC50 [4]: 0.7 µM (active)
- EC50 (cells [5]): > 29.9 µM (inactive)
- IC50 (cells [6]): > 29.9 µM (inactive)

Structure (SMILES): COc1ccc(-c2nn(-c3ccccc3)cc2C(=O)Nc2cccc(C(=O)O)c2)cc1[N+](=O)[O-]
- AC50 (Caspase-6): 5.45 µM (active)

Structure (SMILES): Cc1ccc(Cn2nnc3c(O)nc(C4CCN(S(=O)(=O)c5ccc(S(=O)(=O)NC6CC6)cc5)CC4)nc32)cc1
- IC50 [8]: 54.4 µM (active)
- IC50 [9]: 23.7 µM (active)

Structure (SMILES): COc1ccc(-c2nc3ccccc3c(=O)o2)cc1OC
- AC50 [7]: 28.1 µM (active)

Structure (SMILES): CC(C)c1ccc(-c2nnn(CC(=O)N3CCCCC3)n2)cc1
- AC50 [7]: 24.3 µM (active)

Structure (SMILES): O=C(NCC1CCCO1)c1ccc(NC(=O)c2ccc(Br)cc2)cc1 (centres undefined)
- IC50 [3]: > 29.9 µM (inactive)
- EC50 [4]: 1.45 µM (active)
- EC50 (cells [5]): > 29.9 µM (inactive)
- IC50 (cells [6]): > 29.9 µM (inactive)

Structure (SMILES): COC(=O)[C@]1(C)N[C@H](CN(C)C(C)=O)[C@@H]2C(=O)N(Cc3ccccc3)C(=O)[C@@H]21
- EC50 [10]: > 67.5 µM (inactive)
- IC50 [11]: > 67.5 µM (inactive)

Structure (SMILES): Cc1ccc(S(=O)(=O)Nc2ccc(Nc3nccn4c(-c5ccccc5Oc5ccccc5)cnc34)cc2)cc1
- IC50 [8]: 20.1 µM (active)
- IC50 [9]: 10.4 µM (active)

Structure (SMILES): O=C(N/N=C\C=C\c1ccc([N+](=O)[O-])o1)c1cccs1
- EC50 [12]: 0.243 µM (active)
- EC50 (Streptokinase A): > 150 µM (not active)
- CC50 [13]: 30.6 µM (active)
- EC50 [14]: 5.29 µM (active)
- EC50 [15]: 0.068 µM (active)
- EC50 (Streptococcus): 6.16 µM (active)
- EC50 [16]: 3.56 µM (active)
- EC50 [17]: > 160 µM (inconclusive)
- AC50 (Caspase-6): 7.38 µM (active)

Structure (SMILES): O=C(O)c1ccccc1NS(=O)(=O)c1ccc(N/N=C/c2cccc(O)c2O)c([N+](=O)[O-])c1
- AC50 (Caspase-6): 6.45 µM (active)

Structure (SMILES): COc1ccc(CC2=NCCc3cc(OC)c(OC)cc32)cc1OC
- AC50 [1]: 15.2 µM (active)

Structure (SMILES): C[C@H](CO)N1C[C@H](C)[C@@H](CN(C)C(=O)Cc2ccccc2)OCCCC[C@H](C)Oc2ccc(NC(=O)Nc3ccc(C(F)(F)F)cc3)cc2C1=O
- AC50 [18]: > 70 µM (inactive)
- AC50 [19]: 48.5 µM (active)
- AC50 (Paired box protein Pax-8): 4.34 µM (active)

Structure (SMILES): C[C@H]1CCCCO[C@H](CN(C)C(=O)Nc2ccc(C(F)(F)F)cc2)[C@@H](C)CN([C@@H](C)CO)C(=O)c2cc(NC(=O)Nc3ccccc3)ccc2O1
- AC50 [20]: 22.1 µM (active)
- AC50 [18]: > 70 µM (inactive)
- AC50 [21]: 59.3 µM (active)
- AC50 (Paired box protein Pax-8): 3.02 µM (active)

Structure (SMILES): Cc1ccc(-n2nc(C)c(/C=N/c3ccc(S(=O)(=O)Nc4nccs4)cc3)c2O)cc1C
- IC50 [8]: 17.4 µM (active)
- IC50 [9]: 4.08 µM (active)

Structure (SMILES): Cc1ccc(Nc2nc(N)c3ccccc3n2)cc1Cl
- EC50 [10]: > 67.6 µM (inactive)
- EC50 [22]: 0.528 µM (active)
- IC50 [11]: > 67.6 µM (inactive)
- EC50 [23]: 4.99 µM (active)

From ChEMBL document CHEMBL1201862, “PubChem BioAssay data set” (2004)
